Here are results for two compounds from ChEMBL document CHEMBL4304779, “Treatment of Cancers by Inhibition of Isoprenylcysteine Carboxyl Methyltransferase” (ACS Med Chem Lett, 2019).

SMILES strings stand for the structures. pIC50: −log10 of the molar value.

The target of the experiment is Protein-S-isoprenylcysteine O-methyltransferase (Homo sapiens, UniProt O60725). As to the kind of experiment: Inhibition of recombinant human ICMT expressed in baculovirus infected Sf9 insect cells using SAM as substrate preincubated for 30 mins followed by substrate addition and measured after 90 mins by MTase-Glo assay.
Chain of Protein-S-isoprenylcysteine O-methyltransferase (O60725 whole entry): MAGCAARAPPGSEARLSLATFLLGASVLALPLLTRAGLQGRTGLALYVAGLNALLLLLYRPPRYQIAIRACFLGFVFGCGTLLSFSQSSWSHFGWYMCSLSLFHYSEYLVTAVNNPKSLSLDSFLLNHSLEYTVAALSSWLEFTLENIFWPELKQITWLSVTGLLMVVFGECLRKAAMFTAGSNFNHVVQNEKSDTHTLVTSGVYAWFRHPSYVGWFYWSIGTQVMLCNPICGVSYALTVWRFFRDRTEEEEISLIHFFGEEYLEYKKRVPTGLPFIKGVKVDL

In the case of `Cc1cc(C#N)ccc1O[C@@H](C)COc1cccc(-c2ccnn2C)c1`, the pIC50 (as a rule, −log10 of the IC50, conventionally taken in molar units) is 8.80.

Consider `COc1cc(C#N)ccc1O[C@@H](C)COc1cccc(-n2ccnc2C)c1`, for which the pIC50 was 10.10.
